In brackets after ≈: the same amount, converted by molar mass.
What was measured:
Assay type in all cases: functional
Candida tropicalis [1] = assay: Antifungal activity against Candida tropicalis by microbroth dilution method
Candida parapsilosis = assay: Antifungal activity against Candida parapsilosis by microbroth dilution method; details: Lodderomyces parapsilosis
Trichophyton rubrum = assay: Antifungal activity against Trichophyton rubrum by microbroth dilution method
Candida albicans [2] = assay: Antifungal activity against Candida albicans Y0109 after 24 hrs by microbroth dilution method; details: Y0109, 24 h
Kluyveromyces marxianus [3] = assay: Antifungal activity against Candida kefyr by microbroth dilution method
Candida albicans [4] = assay: Antifungal activity against Candida albicans SC5314 after 24 hrs by microbroth dilution method; details: SC5314, 24 h
Cryptococcus neoformans = assay: Antifungal activity against Cryptococcus neoformans after 72 hrs by microbroth dilution method
Aspergillus fumigatus = assay: Antifungal activity against Aspergillus fumigatus by microbroth dilution method
Candida tropicalis [5] = assay: Ratio of MIC80 for fluconazole to compound for Candida tropicalis by microbroth dilution method
Kluyveromyces marxianus [6] = assay: Ratio of MIC80 for fluconazole to compound for Candida kefyr by microbroth dilution method

SMILES	MIC80 (Candida tropicalis [1])	MIC80 (Candida parapsilosis)	MIC80 (Trichophyton rubrum)	MIC80 (Candida albicans [2])	MIC80 (Kluyveromyces marxianus [3])	MIC80 (Candida albicans [4])	MIC80 (Cryptococcus neoformans)	MIC80 (Aspergillus fumigatus)	Ratio (Candida tropicalis [5])	Ratio (Kluyveromyces marxianus [6])
N#Cc1ccccc1Cn1cc(CC(O)(Cn2cncn2)c2ccc(F)cc2F)nn1 (configuration not stated)	0.125 µg/mL (≈ 0.297 µM)	0.25 µg/mL (≈ 0.593 µM)	0.25 µg/mL (≈ 0.593 µM)	0.0625 µg/mL (≈ 0.148 µM)	< 0.125 µg/mL	0.125 µg/mL (≈ 0.297 µM)	0.5 µg/mL (≈ 1.19 µM)	16 µg/mL (≈ 38 µM)	–	–
N#Cc1cccc(Cn2cc(CC(O)(Cn3cncn3)c3ccc(F)cc3F)nn2)c1 (configuration not stated)	0.125 µg/mL (≈ 0.297 µM)	0.25 µg/mL (≈ 0.593 µM)	0.25 µg/mL (≈ 0.593 µM)	0.0625 µg/mL (≈ 0.148 µM)	< 0.125 µg/mL	0.125 µg/mL (≈ 0.297 µM)	1 µg/mL (≈ 2.37 µM)	32 µg/mL (≈ 75.9 µM)	–	–
N#Cc1ccc(Cn2cc(CC(O)(Cn3cncn3)c3ccc(F)cc3F)nn2)cc1 (configuration not stated)	0.125 µg/mL (≈ 0.297 µM)	0.25 µg/mL (≈ 0.593 µM)	0.25 µg/mL (≈ 0.593 µM)	0.0625 µg/mL (≈ 0.148 µM)	< 0.125 µg/mL	0.125 µg/mL (≈ 0.297 µM)	0.5 µg/mL (≈ 1.19 µM)	32 µg/mL (≈ 75.9 µM)	–	–
OC(Cc1cn(Cc2ccccc2)nn1)(Cn1cncn1)c1ccc(F)cc1F (configuration not stated)	0.0625 µg/mL (≈ 0.158 µM)	0.0625 µg/mL (≈ 0.158 µM)	0.25 µg/mL (≈ 0.631 µM)	0.0625 µg/mL (≈ 0.158 µM)	< 0.125 µg/mL	0.125 µg/mL (≈ 0.315 µM)	< 0.25 µg/mL	16 µg/mL (≈ 40.4 µM)	–	–
CC(C)(C)c1ccc(Cn2cc(CC(O)(Cn3cncn3)c3ccc(F)cc3F)nn2)cc1 (configuration not stated)	0.0625 µg/mL (≈ 0.138 µM)	0.125 µg/mL (≈ 0.276 µM)	0.0625 µg/mL (≈ 0.138 µM)	0.0625 µg/mL (≈ 0.138 µM)	0.0625 µg/mL (≈ 0.138 µM)	0.0625 µg/mL (≈ 0.138 µM)	< 0.125 µg/mL	4 µg/mL (≈ 8.84 µM)	–	–
OC(Cc1cn(Cc2ccc(F)c(F)c2)nn1)(Cn1cncn1)c1ccc(F)cc1F (configuration not stated)	0.125 µg/mL (≈ 0.289 µM)	0.125 µg/mL (≈ 0.289 µM)	0.25 µg/mL (≈ 0.578 µM)	0.125 µg/mL (≈ 0.289 µM)	0.25 µg/mL (≈ 0.578 µM)	0.25 µg/mL (≈ 0.578 µM)	1 µg/mL (≈ 2.31 µM)	16 µg/mL (≈ 37 µM)	16	64
OC(Cc1cn(Cc2ccc(Cl)c(Cl)c2)nn1)(Cn1cncn1)c1ccc(F)cc1F (configuration not stated)	0.125 µg/mL (≈ 0.269 µM)	0.125 µg/mL (≈ 0.269 µM)	0.25 µg/mL (≈ 0.537 µM)	0.125 µg/mL (≈ 0.269 µM)	0.25 µg/mL (≈ 0.537 µM)	0.25 µg/mL (≈ 0.537 µM)	1 µg/mL (≈ 2.15 µM)	32 µg/mL (≈ 68.8 µM)	–	–
OC(Cc1cn(Cc2cc(Cl)cc(Cl)c2)nn1)(Cn1cncn1)c1ccc(F)cc1F (configuration not stated)	0.25 µg/mL (≈ 0.537 µM)	0.25 µg/mL (≈ 0.537 µM)	< 0.125 µg/mL	0.125 µg/mL (≈ 0.269 µM)	0.5 µg/mL (≈ 1.07 µM)	0.25 µg/mL (≈ 0.537 µM)	1 µg/mL (≈ 2.15 µM)	32 µg/mL (≈ 68.8 µM)	–	–
COc1ccc(Cn2cc(CC(O)(Cn3cncn3)c3ccc(F)cc3F)nn2)cc1OC (configuration not stated)	0.125 µg/mL (≈ 0.274 µM)	0.0625 µg/mL (≈ 0.137 µM)	0.0625 µg/mL (≈ 0.137 µM)	0.0156 µg/mL (≈ 0.0342 µM)	0.0625 µg/mL (≈ 0.137 µM)	0.0625 µg/mL (≈ 0.137 µM)	0.0625 µg/mL (≈ 0.137 µM)	2 µg/mL (≈ 4.38 µM)	–	–
COc1ccc(OC)c(Cn2cc(CC(O)(Cn3cncn3)c3ccc(F)cc3F)nn2)c1 (configuration not stated)	0.125 µg/mL (≈ 0.274 µM)	0.0625 µg/mL (≈ 0.137 µM)	0.0625 µg/mL (≈ 0.137 µM)	0.0156 µg/mL (≈ 0.0342 µM)	0.0625 µg/mL (≈ 0.137 µM)	0.0625 µg/mL (≈ 0.137 µM)	0.0625 µg/mL (≈ 0.137 µM)	2 µg/mL (≈ 4.38 µM)	–	–
C[C@@H]1[C@H](O)[C@@H](C)/C=C/C=C/C=C/C=C/C=C/C=C/C=C/[C@H](O[C@@H]2O[C@H](C)[C@@H](O)[C@H](N)[C@@H]2O)C[C@@H]2O[C@](O)(C[C@@H](O)C[C@@H](O)[C@H](O)CC[C@@H](O)C[C@@H](O)CC(=O)O[C@H]1C)C[C@H](O)[C@H]2C(=O)O [AMPHOTERICIN B]	1 µg/mL (≈ 1.08 µM)	0.25 µg/mL (≈ 0.271 µM)	4 µg/mL (≈ 4.33 µM)	0.25 µg/mL (≈ 0.271 µM)	0.25 µg/mL (≈ 0.271 µM)	0.25 µg/mL (≈ 0.271 µM)	1 µg/mL (≈ 1.08 µM)	1 µg/mL (≈ 1.08 µM)	–	–
OC(Cn1cncn1)(Cn1cncn1)c1ccc(F)cc1F [FLUCONAZOLE]	1 µg/mL (≈ 3.27 µM)	0.5 µg/mL (≈ 1.63 µM)	1 µg/mL (≈ 3.27 µM)	0.5 µg/mL (≈ 1.63 µM)	4 µg/mL (≈ 13.1 µM)	0.5 µg/mL (≈ 1.63 µM)	1 µg/mL (≈ 3.27 µM)	64 µg/mL (≈ 209 µM)	–	–
CCC(C)n1ncn(-c2ccc(N3CCN(c4ccc(OCC5COC(Cn6cncn6)(c6ccc(Cl)cc6Cl)O5)cc4)CC3)cc2)c1=O (configuration not stated) [ITRACONAZOLE]	0.0625 µg/mL (≈ 0.0886 µM)	0.0625 µg/mL (≈ 0.0886 µM)	0.0625 µg/mL (≈ 0.0886 µM)	0.0625 µg/mL (≈ 0.0886 µM)	0.125 µg/mL (≈ 0.177 µM)	0.0625 µg/mL (≈ 0.0886 µM)	0.0625 µg/mL (≈ 0.0886 µM)	0.0625 µg/mL (≈ 0.0886 µM)	–	–
CC(=O)N1CCN(c2ccc(OCC3COC(Cn4ccnc4)(c4ccc(Cl)cc4Cl)O3)cc2)CC1 (configuration not stated) [KETOCONAZOLE]	0.0039 µg/mL (≈ 0.00734 µM)	0.0039 µg/mL (≈ 0.00734 µM)	0.0156 µg/mL (≈ 0.0294 µM)	0.0625 µg/mL (≈ 0.118 µM)	0.0625 µg/mL (≈ 0.118 µM)	0.0625 µg/mL (≈ 0.118 µM)	0.0156 µg/mL (≈ 0.0294 µM)	0.0156 µg/mL (≈ 0.0294 µM)	–	–
C[C@@H](c1ncncc1F)[C@](O)(Cn1cncn1)c1ccc(F)cc1F [VORICONAZOLE]	0.0039 µg/mL (≈ 0.0112 µM)	0.0039 µg/mL (≈ 0.0112 µM)	0.0156 µg/mL (≈ 0.0447 µM)	0.0625 µg/mL (≈ 0.179 µM)	0.0625 µg/mL (≈ 0.179 µM)	0.0625 µg/mL (≈ 0.179 µM)	0.0039 µg/mL (≈ 0.0112 µM)	0.0156 µg/mL (≈ 0.0447 µM)	–	–
